According to patent US20130143886A1, “METHODS FOR PRESERVING AND/OR INCREASING RENAL FUNCTION USING XANTHINE OXIDOREDUCTASE INHIBITORS” (priority 2006, published 2013):
Marks after values point to notes of the source that are not given here.

Columns and labels:
[1] = test system: Mice of the species/strain B6C3F1; test: Histopathological examination of the kidney after 13 weeks of oral gavage dosing; type: in vivo; conditions: for Vacuolar Degeneration of Renal Proximal Tubules (number of animals): 12 animals examined, 13 weeks
Procedure: Mice of the species/strain B6C3F1 of an initial age of 6 weeks were dosed via oral gavage with febuxostat suspended in 0.5% methyl cellulose. The daily dose administered was either 0 mg (i.e., the control group), 3 mg, 12 mg, 24 mg, or 48 mg. Histopathological examination of the kidney was carried out after 13-weeks of dosing for vacuolar degeneration of renal proximal tubules (a known naturally occurring change in rodents).

remnant kidney (RK) rats [2] = test: Body weight, food and water intake in remnant kidney rats; type: in vivo, Male Wistar rats; conditions: for BW / BW Gain (from baseline): End of Week 4
Procedure: Male Wistar rats (295-340 g) were used to produce rats with remnant kidney (RK) as follows. […] Rats were then assigned to one of four treatment groups: Group 1, RK control rats (n=7); Group 2, RK+febuxostat (Fx) rats (n=8); Group 3, RK+oxonic acid (OA) rats (n=6); and Group 4, RK+OA+Fx (n=10). Oxonic acid (OA) (Sigma-Aldrich, St Louis Mo., USA), administered at 750 mg/kg body weight daily by oral gavage, was given starting the day after the ⅚ nephrectomy. Beginning immediately following the surgery, febuxostat was administered in drinking water at 30 mg/L (3-4 mg/kg/day), whereas the respective controls received only drinking water (with 3.5 mg/L of NaCl added to keep an equivalent salt concentration to the Fx-containing water). All groups were treated for four weeks. Body weight (beginning just before surgery) and food and water intakes were measured daily. Systolic blood pressure, measured in conscious rats by a tail cuff sphygmomanometer, and plasma uric acid (UA) levels were measured at just before surgery (namely, at baseline) and at the end of the four weeks. Proteinuria was measured at baseline and at the end of two and four weeks. A renal micropuncture procedure along with systemic blood pressure monitoring under pentobarbital anesthesia was performed at the end of four weeks followed by morphologic evaluation of the renal preglomerular microvasculature. Food and water intake were determined daily. Systolic blood pressure (SBP) was measured by a tail-cuff sphygmomanometer using an automated system (XBP-100; Kent Scientific Co, Torrington, Conn., USA) in conscious animals. All animals were preconditioned for blood pressure measurements one week before each experiment. Plasma uric acid was quantified using a commercial kit (Diagnostic Chemicals Ltd, Charlottetown, PEI, Canada). Proteinuria was determined by turbidimetry by the method of trichloroacetic acid as described in Henry R J et al., “Turbidimetric determination of proteins with sulfosalicylic and tricholoroacetic acids”, Proc Soc Exp Biol Med 92:748-751 (1956), the contents of which are herein incorporated by reference.

remnant kidney (RK) rats [3] = test: Plasma uric acid in remnant kidney rats; type: in vivo, Male Wistar rats
Procedure: Male Wistar rats (295-340 g) were used to produce rats with remnant kidney (RK) as follows. […] Rats were then assigned to one of four treatment groups: Group 1, RK control rats (n=7); Group 2, RK+febuxostat (Fx) rats (n=8); Group 3, RK+oxonic acid (OA) rats (n=6); and Group 4, RK+OA+Fx (n=10). Oxonic acid (OA) (Sigma-Aldrich, St Louis Mo., USA), administered at 750 mg/kg body weight daily by oral gavage, was given starting the day after the ⅚ nephrectomy. Beginning immediately following the surgery, febuxostat was administered in drinking water at 30 mg/L (3-4 mg/kg/day), whereas the respective controls received only drinking water (with 3.5 mg/L of NaCl added to keep an equivalent salt concentration to the Fx-containing water). All groups were treated for four weeks. Body weight (beginning just before surgery) and food and water intakes were measured daily. Systolic blood pressure, measured in conscious rats by a tail cuff sphygmomanometer, and plasma uric acid (UA) levels were measured at just before surgery (namely, at baseline) and at the end of the four weeks. Proteinuria was measured at baseline and at the end of two and four weeks. A renal micropuncture procedure along with systemic blood pressure monitoring under pentobarbital anesthesia was performed at the end of four weeks followed by morphologic evaluation of the renal preglomerular microvasculature. Food and water intake were determined daily. Systolic blood pressure (SBP) was measured by a tail-cuff sphygmomanometer using an automated system (XBP-100; Kent Scientific Co, Torrington, Conn., USA) in conscious animals. […] Plasma uric acid was quantified using a commercial kit (Diagnostic Chemicals Ltd, Charlottetown, PEI, Canada). Proteinuria was determined by turbidimetry by the method of trichloroacetic acid as described in Henry R J et al., “Turbidimetric determination of proteins with sulfosalicylic and tricholoroacetic acids”, Proc Soc Exp Biol Med 92:748-751 (1956), the contents of which are herein incorporated by reference.

[4] = RK + OA + Fx group (OA-induced hyperuricemia)
[5] = RK + OA + Fx group (OA-induced hyperuricemia), Week 1
[6] = RK + OA + Fx group (OA-induced hyperuricemia), Week 2
[7] = RK + OA + Fx group (OA-induced hyperuricemia), Week 3
[8] = RK + OA + Fx group (OA-induced hyperuricemia), Week 4
[9] = RK rats (RK + Fx or RK + OA group)
[10] = RK rats (RK + Fx or RK + OA group), Week 1
[11] = RK rats (RK + Fx or RK + OA group), Week 2
[12] = RK rats (RK + Fx or RK + OA group), Week 3
[13] = RK rats (RK + Fx or RK + OA group), Week 4

## Cc1nc(-c2ccc(OCC(C)C)c(C#N)c2)sc1C(=O)O [febuxostat, 2-[3-cyano-4-(2-methylpropoxy)phenyl]-4-methylthiazole-5-carboxylic acid]
[1]; Daily Dose 3, Female
  Vacuolar Degeneration of Renal Proximal Tubules (number of animals): 1
[1]; Daily Dose 3, Male
  Vacuolar Degeneration of Renal Proximal Tubules (number of animals): 7*
[1]; Daily Dose 12, Female
  Vacuolar Degeneration of Renal Proximal Tubules (number of animals): 1
[1]; Daily Dose 12, Male
  Vacuolar Degeneration of Renal Proximal Tubules (number of animals): 5**
[1]; Daily Dose 24, Female
  Vacuolar Degeneration of Renal Proximal Tubules (number of animals): 0
[1]; Daily Dose 24, Male
  Vacuolar Degeneration of Renal Proximal Tubules (number of animals): 2**
[1]; Daily Dose 48, Female
  Vacuolar Degeneration of Renal Proximal Tubules (number of animals): 2
[1]; Daily Dose 48, Male
  Vacuolar Degeneration of Renal Proximal Tubules (number of animals): 1**
[1]; male animals
  Vacuolar degeneration of the renal proximal tubules (in words): reduced the amount of vacuolar degeneration of the renal proximal tubules in a statistically significant fashion
Remnant kidney (RK) rats [2]; [4]
  BW: 316.7 ± 12.3 g
  BW Gain (from baseline): -3.0 ± 11.5 g
Remnant kidney (RK) rats [2]; [5]
  Daily Food Intake: 8.7 ± 1.7 g
  Daily Water Intake: 30.2 ± 2.8 mL
Remnant kidney (RK) rats [2]; [6]
  Daily Food Intake: 16.0 ± 0.7 g
  Daily Water Intake: 40.6 ± 2.6 mL
Remnant kidney (RK) rats [2]; [7]
  Daily Food Intake: 18.4 ± 0.5 g
  Daily Water Intake: 38.6 ± 1.0 mL
Remnant kidney (RK) rats [2]; [8]
  Daily Food Intake: 18.6 ± 0.5 g
  Daily Water Intake: 40.5 ± 1.6 mL
Remnant kidney (RK) rats [2]; [9]
  BW: 340.6 ± 10.8 g
  BW Gain (from baseline): 18.4 ± 8.2 g
Remnant kidney (RK) rats [2]; [10]
  Daily Food Intake: 8.6 ± 1.5 g
  Daily Water Intake: 31.5 ± 1.4 mL
Remnant kidney (RK) rats [2]; [11]
  Daily Food Intake: 15.4 ± 0.5 g
  Daily Water Intake: 32.6 ± 1.2 mL
Remnant kidney (RK) rats [2]; [12]
  Daily Food Intake: 20.2 ± 0.5 g
  Daily Water Intake: 37.2 ± 2.5 mL
Remnant kidney (RK) rats [2]; [13]
  Daily Food Intake: 22.4 ± 1.3 g
  Daily Water Intake: 39.4 ± 1.6 mL
Remnant kidney (RK) rats [2]; RK rats, normal daily water intake 35-40 mL
  Water intake in RK rats during febuxostat treatment (in words): reduced to near normal levels
Remnant kidney (RK) rats [2]; end of the study
  Body weight or body weight gain between the four treatment groups (in words): no significant differences in body weight or body weight gain
Remnant kidney (RK) rats [3]; RK rats receiving febuxostat, end of four weeks, difference not statistically significant
  Plasma uric acid as % of the value measured in the RK control rats: approximately 63%
Remnant kidney (RK) rats [3]; febuxostat added to OA-treated RK rats
  Plasma uric acid in OA-treated rats (in words): prevented the'rise of uric acid levels
